Source: ChEMBL document CHEMBL1201862, “PubChem BioAssay data set” (2004)
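How tested: cells in 96-well plates exposed to compound for 48 hours at five concentrations. The concentration for 50% growth inhibition is given as GI50.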 Activity calls are given as the source filed them. No stated cut-off is given here; in the data, active = GI50 up to about 1.1 µM and inactive = higher.

Experiments:
Assay in all cases: growth of human tumour cells (NCI), 48 h
A549 = system: A549
HT-29 = system: HT-29
SK-MEL-2 = system: SK-MEL-2
T47D = system: T47D
UACC-62 = system: UACC-62
KM12 = system: KM12
NCI-H226 = system: NCI-H226
U-251 = system: U-251
MDA-MB-435 = system: MDA-MB-435
IGROV-1 = system: IGROV-1
OVCAR-5 = system: OVCAR-5
COLO 205 = system: COLO 205
786-0 = system: 786-0
SF-539 = system: SF-539
MDA-MB-231 = system: MDA-MB-231
SF-295 = system: SF-295
SK-MEL-28 = system: SK-MEL-28
DU-145 = system: DU-145
HOP-62 = system: HOP-62
HL-60 = system: HL-60
K562 = system: K562
BT-549 = system: BT-549
MDA-N = system: MDA-N
SNB-75 = system: SNB-75
Malme-3M = system: Malme-3M
TK-10 = system: TK-10
NCI/ADR-RES = system: NCI/ADR-RES
SNB-19 = system: SNB-19
HCT-15 = system: HCT-15
UO-31 = system: UO-31
MCF7 = system: MCF7
RXF 393 = system: RXF 393
OVCAR-4 = system: OVCAR-4
SN12C = system: SN12C
RPMI-8226 = system: RPMI-8226
CAKI-1 = system: CAKI-1
PC-3 = system: PC-3
ACHN = system: ACHN
CCRF-CEM = system: CCRF-CEM
Hs-578T = system: Hs-578T
NCI-H460 = system: NCI-H460
SW-620 = system: SW-620
MOLT-4 = system: MOLT-4
OVCAR-8 = system: OVCAR-8
SK-MEL-5 = system: SK-MEL-5
OVCAR-3 = system: OVCAR-3
HCT-116 = system: HCT-116
LOX IMVI = system: LOX IMVI
HCC 2998 = system: HCC 2998
M14 = system: M14
UACC-257 = system: UACC-257
SF-268 = system: SF-268
EKVX = system: EKVX
HOP-92 = system: HOP-92
SK-OV-3 = system: SK-OV-3
NCI-H522 = system: NCI-H522
A498 = system: A498
NCI-H23 = system: NCI-H23
SR = system: SR

N#CC(C#N)=C1CCCCc2ccc([N+](=O)[O-])cc21
GI50 (A549): > 100 µM (inactive)
GI50 (HT-29): 78.9 µM (inactive)
GI50 (SK-MEL-2): > 100 µM (inactive)
GI50 (T47D): 46.3 µM (inactive)
GI50 (UACC-62): > 100 µM (inactive)
GI50 (KM12): > 100 µM (inactive)
GI50 (NCI-H226): > 100 µM (inactive)
GI50 (U-251): 76.2 µM (inactive)
GI50 (MDA-MB-435): > 100 µM (inactive)
GI50 (IGROV-1): > 100 µM (inactive)
GI50 (OVCAR-5): > 100 µM (inactive)
GI50 (COLO 205): > 100 µM (inactive)
GI50 (786-0): 17.4 µM (inactive)
GI50 (SF-539): > 100 µM (inactive)
GI50 (MDA-MB-231): > 100 µM (inactive)
GI50 (SF-295): > 100 µM (inactive)
GI50 (SK-MEL-28): > 100 µM (inactive)
GI50 (DU-145): > 100 µM (inactive)
GI50 (HOP-62): > 100 µM (inactive)
GI50 (HL-60): 29 µM (inactive)
GI50 (K562): 39.4 µM (inactive)
GI50 (BT-549): > 100 µM (inactive)
GI50 (MDA-N): 51.6 µM (inactive)
GI50 (SNB-75): > 100 µM (inactive)
GI50 (Malme-3M): > 100 µM (inactive)
GI50 (TK-10): > 100 µM (inactive)
GI50 (NCI/ADR-RES): > 100 µM (inactive)
GI50 (SNB-19): > 100 µM (inactive)
GI50 (HCT-15): 63.7 µM
GI50 (UO-31): 92.9 µM (inactive)
GI50 (MCF7): 38.7 µM (inactive)
GI50 (RXF 393): 40.6 µM (inactive)
GI50 (OVCAR-4): > 100 µM (inactive)
GI50 (SN12C): 52.6 µM (inactive)
GI50 (RPMI-8226): 31.2 µM (inactive)
GI50 (CAKI-1): 95.7 µM (inactive)
GI50 (PC-3): 55.3 µM (inactive)
GI50 (ACHN): 93.5 µM (inactive)
GI50 (CCRF-CEM): 40.5 µM (inactive)
GI50 (Hs-578T): > 100 µM (inactive)
GI50 (NCI-H460): > 100 µM (inactive)
GI50 (SW-620): 41.9 µM (inactive)
GI50 (MOLT-4): 41.8 µM (inactive)
GI50 (OVCAR-8): > 100 µM (inactive)
GI50 (SK-MEL-5): > 100 µM (inactive)
GI50 (OVCAR-3): 15.7 µM (inactive)
GI50 (HCT-116): 24.3 µM (inactive)
GI50 (LOX IMVI): 76.2 µM (inactive)
GI50 (HCC 2998): > 100 µM (inactive)
GI50 (M14): > 100 µM (inactive)
GI50 (UACC-257): > 100 µM (inactive)
GI50 (SF-268): > 100 µM (inactive)
GI50 (EKVX): 46.6 µM (inactive)
GI50 (HOP-92): > 100 µM (inactive)
GI50 (SK-OV-3): > 100 µM (inactive)
GI50 (NCI-H522): 19.4 µM (inactive)
GI50 (A498): 78.3 µM (inactive)
GI50 (NCI-H23): > 100 µM (inactive)

Cc1ccc(SCC(OCn2cnc3c(Cl)nc(N)nc32)[C@H](C)F)cc1 (stereo partly drawn)
GI50 (A549): 69.5 µM (inactive)
GI50 (HT-29): 82.2 µM (inactive)
GI50 (SK-MEL-2): > 100 µM (inactive)
GI50 (T47D): 71.1 µM (inactive)
GI50 (UACC-62): > 100 µM (inactive)
GI50 (KM12): 81.8 µM (inactive)
GI50 (NCI-H226): > 100 µM (inactive)
GI50 (U-251): 98.4 µM (inactive)
GI50 (MDA-MB-435): > 100 µM (inactive)
GI50 (IGROV-1): > 100 µM (inactive)
GI50 (OVCAR-5): > 100 µM (inactive)
GI50 (COLO 205): > 100 µM (inactive)
GI50 (786-0): 85.1 µM (inactive)
GI50 (SF-539): > 100 µM (inactive)
GI50 (MDA-MB-231): 46.7 µM (inactive)
GI50 (SF-295): 53.7 µM (inactive)
GI50 (SR): 28.2 µM (inactive)
GI50 (SK-MEL-28): > 100 µM (inactive)
GI50 (DU-145): > 100 µM (inactive)
GI50 (HOP-62): > 100 µM (inactive)
GI50 (HL-60): 28.3 µM (inactive)
GI50 (BT-549): 52.4 µM (inactive)
GI50 (MDA-N): > 100 µM (inactive)
GI50 (SNB-75): > 100 µM (inactive)
GI50 (Malme-3M): 88.9 µM (inactive)
GI50 (TK-10): > 100 µM (inactive)
GI50 (NCI/ADR-RES): 30.1 µM (inactive)
GI50 (SNB-19): > 100 µM (inactive)
GI50 (HCT-15): > 100 µM
GI50 (UO-31): 59.3 µM (inactive)
GI50 (MCF7): 29.9 µM (inactive)
GI50 (OVCAR-4): 71.3 µM (inactive)
GI50 (SN12C): 43.7 µM (inactive)
GI50 (RPMI-8226): 36.9 µM (inactive)
GI50 (CAKI-1): > 100 µM (inactive)
GI50 (PC-3): 60.5 µM (inactive)
GI50 (ACHN): 37.5 µM (inactive)
GI50 (CCRF-CEM): 39.1 µM (inactive)
GI50 (Hs-578T): > 100 µM (inactive)
GI50 (NCI-H460): 78.2 µM (inactive)
GI50 (SW-620): > 100 µM (inactive)
GI50 (MOLT-4): 18.9 µM (inactive)
GI50 (OVCAR-8): 63 µM (inactive)
GI50 (SK-MEL-5): 18.1 µM (inactive)
GI50 (OVCAR-3): > 100 µM (inactive)
GI50 (HCT-116): 50.4 µM (inactive)
GI50 (LOX IMVI): > 100 µM (inactive)
GI50 (HCC 2998): > 100 µM (inactive)
GI50 (M14): > 100 µM (inactive)
GI50 (UACC-257): 21.1 µM (inactive)
GI50 (SF-268): > 100 µM (inactive)
GI50 (HOP-92): 63.7 µM (inactive)
GI50 (SK-OV-3): > 100 µM (inactive)
GI50 (NCI-H522): 13.8 µM (inactive)
GI50 (NCI-H23): 50.9 µM (inactive)

O=C(O)Cc1ccc(/N=N/c2c(O)c(C(=O)O)cc3ccccc23)cc1
GI50 (A549): > 100 µM (inactive)
GI50 (HT-29): > 100 µM (inactive)
GI50 (SK-MEL-2): > 100 µM (inactive)
GI50 (T47D): > 100 µM (inactive)
GI50 (UACC-62): > 100 µM (inactive)
GI50 (KM12): > 100 µM (inactive)
GI50 (NCI-H226): > 100 µM (inactive)
GI50 (U-251): > 100 µM (inactive)
GI50 (MDA-MB-435): > 100 µM (inactive)
GI50 (IGROV-1): > 100 µM (inactive)
GI50 (OVCAR-5): > 100 µM (inactive)
GI50 (COLO 205): > 100 µM (inactive)
GI50 (786-0): > 100 µM (inactive)
GI50 (SF-539): > 100 µM (inactive)
GI50 (MDA-MB-231): > 100 µM (inactive)
GI50 (SF-295): > 100 µM (inactive)
GI50 (SR): > 100 µM (inactive)
GI50 (SK-MEL-28): > 100 µM (inactive)
GI50 (DU-145): > 100 µM (inactive)
GI50 (HOP-62): > 100 µM (inactive)
GI50 (HL-60): > 100 µM (inactive)
GI50 (K562): > 100 µM (inactive)
GI50 (BT-549): > 100 µM (inactive)
GI50 (MDA-N): > 100 µM (inactive)
GI50 (SNB-75): > 100 µM (inactive)
GI50 (Malme-3M): 24.8 µM (inactive)
GI50 (TK-10): > 100 µM (inactive)
GI50 (NCI/ADR-RES): > 100 µM (inactive)
GI50 (SNB-19): > 100 µM (inactive)
GI50 (HCT-15): > 100 µM
GI50 (UO-31): > 100 µM (inactive)
GI50 (MCF7): > 100 µM (inactive)
GI50 (RXF 393): > 100 µM (inactive)
GI50 (OVCAR-4): > 100 µM (inactive)
GI50 (SN12C): > 100 µM (inactive)
GI50 (RPMI-8226): > 100 µM (inactive)
GI50 (CAKI-1): > 100 µM (inactive)
GI50 (PC-3): > 100 µM (inactive)
GI50 (ACHN): > 100 µM (inactive)
GI50 (CCRF-CEM): > 100 µM (inactive)
GI50 (Hs-578T): > 100 µM (inactive)
GI50 (NCI-H460): > 100 µM (inactive)
GI50 (SW-620): > 100 µM (inactive)
GI50 (MOLT-4): > 100 µM (inactive)
GI50 (OVCAR-8): > 100 µM (inactive)
GI50 (SK-MEL-5): 71.8 µM (inactive)
GI50 (OVCAR-3): > 100 µM (inactive)
GI50 (HCT-116): > 100 µM (inactive)
GI50 (HCC 2998): > 100 µM (inactive)
GI50 (M14): > 100 µM (inactive)
GI50 (UACC-257): > 100 µM (inactive)
GI50 (SF-268): > 100 µM (inactive)
GI50 (EKVX): > 100 µM (inactive)
GI50 (HOP-92): > 100 µM (inactive)
GI50 (SK-OV-3): > 100 µM (inactive)
